≈ marks a conversion by molar mass, not a printed value. Calls of active or inactive are those of the source. The rule behind the calls is not given here.
Tests used:
[1] = tested on: Chrysosporium keratinophilum; assay: Antifungal activity against Chrysosporium keratinophilum assessed as growth inhibition at 50 mg/mL after 72 hr by agar well diffusion method; type: functional; settings: for zone of inhibition at 50000 µg/mL: read-out: IZ
[2] = tested on: Candida albicans; assay: Antifungal activity against Candida albicans MTCC227 assessed as growth inhibition after 72 hr by serial broth dilution method
[3] = tested on: Staphylococcus aureus; assay: Antibacterial activity against Staphylococcus aureus ATCC 25923 assessed as growth inhibition at 50 mg/mL after 24 hr by agar well diffusion method; settings: for zone of inhibition at 50000 µg/mL: ATCC 25923, 24 h, read-out: IZ
[4] = tested on: Escherichia coli; assay: Antibacterial activity against Escherichia coli ATCC 25922 assessed as growth inhibition after 24 hr by serial broth dilution method
[5] = tested on: Aspergillus flavus; assay: Antifungal activity against Aspergillus flavus assessed as growth inhibition at 50 mg/mL after 72 hr by agar well diffusion method; type: functional; settings: for zone of inhibition at 50000 µg/mL: read-out: IZ
[6] = tested on: Radical scavenging activity; assay: Antioxidant activity assessed as DPPH free radical scavenging activity at 100 ug/mL after 10 min UV-Vis spectrophotometric analysis relative to control; type: functional
[7] = tested on: Chrysosporium keratinophilum; assay: Antifungal activity against Chrysosporium keratinophilum assessed as growth inhibition after 72 hr by serial broth dilution method; type: functional
[8] = tested on: Staphylococcus aureus; assay: Antibacterial activity against Staphylococcus aureus ATCC 25923 assessed as growth inhibition after 24 hr by serial broth dilution method
[9] = tested on: Pseudomonas aeruginosa; assay: Antibacterial activity against Pseudomonas aeruginosa ATCC 27853 assessed as growth inhibition after 24 hr by serial broth dilution method; type: functional
[10] = tested on: Aspergillus flavus; assay: Antifungal activity against Aspergillus flavus assessed as growth inhibition after 72 hr by serial broth dilution method; type: functional
[11] = tested on: Candida albicans; assay: Antifungal activity against Candida albicans MTCC227 assessed as growth inhibition at 50 mg/mL after 72 hr by agar well diffusion method; settings: for zone of inhibition at 50000 µg/mL: MTCC227, 72 h, read-out: IZ
[12] = tested on: Escherichia coli; assay: Antibacterial activity against Escherichia coli ATCC 25922 assessed as growth inhibition at 50 mg/mL after 24 hr by agar well diffusion method; settings: for zone of inhibition at 50000 µg/mL: ATCC 25922, 24 h, read-out: IZ
[13] = tested on: Pseudomonas aeruginosa; assay: Antibacterial activity against Pseudomonas aeruginosa ATCC 27853 assessed as growth inhibition at 50 mg/mL after 24 hr by agar well diffusion method; type: functional; settings: for zone of inhibition at 50000 µg/mL: ATCC 27853, 24 h, read-out: IZ
[14] = Metal chelating activity of the compound assessed as ferrous ion complex formation at 0.5 to 2 mg/mL after 10 min by spectrophotometric analysis relative to EDTA
[15] = tested on: Chrysosporium keratinophilum; assay: Antifungal activity against Chrysosporium keratinophilum assessed as growth inhibition at 0.5 to 1 mg/mL after 72 hr by agar well diffusion method; type: functional
[16] = tested on: Aspergillus flavus; assay: Antifungal activity against Aspergillus flavus assessed as growth inhibition at 0.5 to 1 mg/mL after 72 hr by agar well diffusion method; type: functional
[17] = tested on: Candida albicans; assay: Antifungal activity against Candida albicans NCPF 3179 assessed as growth inhibition at 0.5 to 1 mg/mL after 72 hr by agar well diffusion method; type: functional

Compound	Activity [6] [%]	MIC [7]	MIC [10]	zone of inhibition at 50000 µg/mL [1] [mm]	MIC ([2]; MTCC227, 72 h) [µg/mL]	zone of inhibition at 50000 µg/mL [3] [mm]	MIC ([4]; ATCC 25922, 24 h) [µg/mL]	zone of inhibition at 50000 µg/mL [5] [mm]	MIC ([8]; ATCC 25923, 24 h) [µg/mL]	MIC ([9]; ATCC 27853, 24 h) [µg/mL]	zone of inhibition at 50000 µg/mL [11] [mm]	zone of inhibition at 50000 µg/mL [12] [mm]	zone of inhibition at 50000 µg/mL [13] [mm]	other results
COc1ccc(C(CC(=O)c2cc3ccccc3oc2=O)Nc2ccc(C(=O)O)cc2)cc1 (stereo not given)	18.1	inactive	inactive											growth inhibition (GI) [1]: inactive; MIC [2]: inactive; growth inhibition (GI) [3]: inactive; MIC [4]: inactive; growth inhibition (GI) [5]: inactive; MIC [8]: inactive; MIC [9]: inactive; growth inhibition (GI) [11]: inactive; growth inhibition (GI) [12]: inactive; growth inhibition (GI) [13]: inactive
O=C(CC(Nc1ccccc1)c1ccccc1)c1cc2ccccc2o1 (stereo not given)	28.7	500 µg/mL (≈ 1460 µM)	500 µg/mL (≈ 1460 µM)	1	500 (≈ 1460 µM)	1	500 (≈ 1460 µM)	2	500 (≈ 1460 µM)	500 (≈ 1460 µM)	2	1	1	
CN(C)c1ccc(C(CC(=O)c2cc3ccccc3oc2=O)Nc2ccc(C(=O)O)cc2)cc1 (stereo not given)	12.3	inactive	450 µg/mL (≈ 986 µM)		500 (≈ 1100 µM)	2	500 (≈ 1100 µM)	1	550 (≈ 1200 µM)	400 (≈ 876 µM)	1	3	3	growth inhibition (GI) [1]: inactive
O=C(O)c1ccc(NC(CC(=O)c2cc3ccccc3o2)c2ccc(F)cc2)cc1 (stereo not given)	36.2	150 µg/mL (≈ 372 µM)	130 µg/mL (≈ 322 µM)	12	100 (≈ 248 µM)	6	300 (≈ 744 µM)	9	140 (≈ 347 µM)	140 (≈ 347 µM)	18	5	9	Activity [14]: Active
O=C(CC(Nc1ccccc1)c1ccccc1)c1cc2ccccc2oc1=O (stereo not given)	25.3	550 µg/mL (≈ 1490 µM)	450 µg/mL (≈ 1220 µM)	3	300 (≈ 812 µM)	5	500 (≈ 1350 µM)	4	500 (≈ 1350 µM)	350 (≈ 947 µM)	7	4	1	
O=C(O)c1ccc(NC(CC(=O)c2cc3ccccc3o2)c2ccc([N+](=O)[O-])cc2)cc1 (stereo not given)	29.1	500 µg/mL (≈ 1160 µM)	550 µg/mL (≈ 1280 µM)	2	450 (≈ 1050 µM)	3	500 (≈ 1160 µM)	3	400 (≈ 929 µM)	500 (≈ 1160 µM)	2	3	3	
OC(Cn1cncn1)(Cn1cncn1)c1ccc(F)cc1F [FLUCONAZOLE]														inhibition zone (IZ) [15]: 14 mm; MIC ([15]; Chrysosporium keratinophilum, 72 h): 40 µg/mL (≈ 131 µM); inhibition zone (IZ) [16]: 10 mm; MIC ([16]; Aspergillus flavus, 72 h): 40 µg/mL (≈ 131 µM); inhibition zone (IZ) [17]: 20 mm; MIC ([17]; Candida albicans, NCPF 3179, 72 h): 40 µg/mL (≈ 131 µM)
Cc1ccc(C(CC(=O)c2cc3ccccc3oc2=O)Nc2ccc(C(=O)O)cc2)cc1 (stereo not given)	52.5	inactive	450 µg/mL (≈ 1050 µM)		500 (≈ 1170 µM)	3	500 (≈ 1170 µM)	1	500 (≈ 1170 µM)	500 (≈ 1170 µM)	1	1	3	growth inhibition (GI) [1]: inactive; Activity [14]: Active
COc1ccc(C(CC(=O)c2cc3ccccc3o2)Nc2ccccc2)cc1 (stereo not given)	27.3	inactive	inactive											growth inhibition (GI) [1]: inactive; MIC [2]: inactive; growth inhibition (GI) [3]: inactive; MIC [4]: inactive; growth inhibition (GI) [5]: inactive; MIC [8]: inactive; MIC [9]: inactive; growth inhibition (GI) [11]: inactive; growth inhibition (GI) [12]: inactive; growth inhibition (GI) [13]: inactive
O=C(O)c1ccc(NC(CC(=O)c2cc3ccccc3oc2=O)c2ccc(Cl)cc2)cc1 (stereo not given)	34.7	40 µg/mL (≈ 89.3 µM)	40 µg/mL (≈ 89.3 µM)	15	50 (≈ 112 µM)	11	50 (≈ 112 µM)	11	50 (≈ 112 µM)	40 (≈ 89.3 µM)	19	13	13	
O=C(O)c1ccc(NC(CC(=O)c2cc3ccccc3o2)c2ccc(Cl)cc2)cc1 (stereo not given)	31.2	40 µg/mL (≈ 95.3 µM)	40 µg/mL (≈ 95.3 µM)	13	50 (≈ 119 µM)	8	120 (≈ 286 µM)	7	130 (≈ 310 µM)	140 (≈ 333 µM)	17	9	7	
CN(C)c1ccc(C(CC(=O)c2cc3ccccc3o2)Nc2ccc(C(=O)O)cc2)cc1 (stereo not given)	67.2	40 µg/mL (≈ 93.4 µM)	40 µg/mL (≈ 93.4 µM)	12	50 (≈ 117 µM)	11	50 (≈ 117 µM)	10	60 (≈ 140 µM)	40 (≈ 93.4 µM)	19	13	10	Activity [14]: Active
O=C(O)c1ccc(NC(CC(=O)c2cc3ccccc3oc2=O)c2ccc(F)cc2)cc1 (stereo not given)	35.2	200 µg/mL (≈ 464 µM)	230 µg/mL (≈ 533 µM)	12	100 (≈ 232 µM)	10	100 (≈ 232 µM)	10	120 (≈ 278 µM)	100 (≈ 232 µM)	18	12	12	
Cc1ccc(C(CC(=O)c2cc3ccccc3o2)Nc2ccc(C(=O)O)cc2)cc1 (stereo not given)	54.1	inactive	inactive											growth inhibition (GI) [1]: inactive; MIC [2]: inactive; growth inhibition (GI) [3]: inactive; MIC [4]: inactive; growth inhibition (GI) [5]: inactive; MIC [8]: inactive; MIC [9]: inactive; growth inhibition (GI) [11]: inactive; growth inhibition (GI) [12]: inactive; growth inhibition (GI) [13]: inactive
COc1ccc(C(CC(=O)c2cc3ccccc3o2)Nc2ccc(C(=O)O)cc2)cc1 (stereo not given)	14.2	500 µg/mL (≈ 1200 µM)	500 µg/mL (≈ 1200 µM)	2		1	500 (≈ 1200 µM)	1	500 (≈ 1200 µM)	500 (≈ 1200 µM)		3	1	MIC [2]: inactive; growth inhibition (GI) [11]: inactive
Cc1cc(C(C)(C)C)c(O)c(C(C)(C)C)c1	90													
O=C(O)c1ccc(NC(CC(=O)c2cc3ccccc3oc2=O)c2ccc([N+](=O)[O-])cc2)cc1 (stereo not given)	15.3	350 µg/mL (≈ 763 µM)	250 µg/mL (≈ 545 µM)	6	500 (≈ 1090 µM)	3	500 (≈ 1090 µM)	5	500 (≈ 1090 µM)	430 (≈ 938 µM)	4	3	6	

Reference: ChEMBL document CHEMBL3045073, “Synthesis of -amino carbonyl derivatives of coumarin and benzofuran and evaluation of their biological activity” (Med Chem Res, 2013)
